Earlier results, collected in patent publication US20240082222A1, “4-CHLORO-N-[2-[(4-CHLOROPHENYL)METHYL]-3-OXO-1,2,4-THIADIAZOL-5-YL]BENZAMIDE FOR USE IN MEDICINE” (Betagenon AB, priority 2021, published 2024).

Legend:
[1] = mice, lumbar disc puncture and postoperative pain models; cited from earlier work
[2] = 1000 mg/day in suspension, day 28, patients with type-2 diabetes; cited from earlier work

Row | SMILES | treatment of pain (mechanical hypersensitivity) [1] | mean Cmax [2] [µg/mL]
1 | CN(C)C(=N)N=C(N)N [metformin, reference compound] | effective at treating pain | 
2 | O=C(Nc1nc(=O)n(Cc2ccc(Cl)cc2)s1)c1ccc(Cl)cc1 [compound of formula I, 4-chloro-N-[2-[(4-chlorophenyl)methyl]-3-oxo-1,2,4-thiadiazol-5-yl]benzamide] | effective at treating pain | 55
